The test system of the test is MV-4-11 cells. Nature of the test: Gene expression microarray analysis (Affymetrix PrimeView) and GSEA. The test is classed as cell-based, human. More on the design: RFU PODN (11730768_x_at) / Fold change /veh PODN (11730768_x_at) / RFU LINC00158 (11744669_a_at) / Fold change /veh LINC00158 (11744669_a_at) / RFU DUSP10 (11751237_a_at) / Fold change /veh DUSP10 (11751237_a_at) / RFU ID3 (11757404_x_at) / Fold change /veh ID3 (11757404_x_at) / RFU PLEKHG5 (11737974_s_at) / Fold change /veh PLEKHG5 (11737974_s_at) / RFU LRRC4B (11730491_at) / Fold change /veh LRRC4B (11730491_at) / RFU GIMAP4 (11747438_a_at) / Fold change /veh GIMAP4 (11747438_a_at) / RFU KRT8 (11758183_x_at) / Fold change /veh KRT8 (11758183_x_at) / RFU CNN1 (11734310_a_at) / Fold change /veh CNN1 (11734310_a_at) / RFU VPS37D (11726825_at) / Fold change /veh VPS37D (11726825_at) / RFU C10orf10 (11716522_x_at) / Fold change /veh C10orf10 (11716522_x_at) / RFU KIR2DL2 /// KIR2DL4 /// KIR2DL5A /// KIR2DL5B /// KIR2DS1 /// KIR2DS2 /// KIR2DS3 /// KIR2DS4 /// KIR3DL3 /// KIR3DL3 /// KIR3DS1 (11738374_at) / Fold change /veh KIR2DL2 /// KIR2DL4 /// KIR2DL5A /// KIR2DL5B /// KIR2DS1 /// KIR2DS2 /// KIR2DS3 /// KIR2DS4 /// KIR3DL3 /// KIR3DL3 /// KIR3DS1 (11738374_at) / RFU C1QL1 (11718748_at) / Fold change /veh C1QL1 (11718748_at) / RFU TMPRSS4 (11747572_a_at) / Fold change /veh TMPRSS4 (11747572_a_at) / RFU HAMP (11756126_x_at) / Fold change /veh HAMP (11756126_x_at) / RFU RNFT2 (11725882_a_at) / Fold change /veh RNFT2 (11725882_a_at) / RFU NR4A2 (11747474_a_at) / Fold change /veh NR4A2 (11747474_a_at) / RFU ABCC12 (11746883_a_at) / Fold change /veh ABCC12 (11746883_a_at) / RFU TMEM136 (11760407_x_at) / Fold change /veh TMEM136 (11760407_x_at) / RFU CLDN22 /// WWC2 (11732394_at) / Fold change /veh CLDN22 /// WWC2 (11732394_at) / RFU HLA-DPB1 (11760878_x_at) / Fold change /veh HLA-DPB1 (11760878_x_at) / RFU SPINT1 (11716480_a_at) / Fold change /veh SPINT1 (11716480_a_at) / RFU GAP43 (11754022_s_at) / Fold change /veh GAP43 (11754022_s_at) / RFU A4GNT (11735810_at) / Fold change /veh A4GNT (11735810_at) / RFU PRB3 (11715151_x_at) / Fold change /veh PRB3 (11715151_x_at) / RFU TUBB4B (11761932_at) / Fold change /veh TUBB4B (11761932_at) / RFU CAPN14 (11732068_a_at) / Fold change /veh CAPN14 (11732068_a_at) / RFU TMCC2 (11721928_a_at) / Fold change /veh TMCC2 (11721928_a_at) / RFU IRGQ (11745062_a_at) / Fold change /veh IRGQ (11745062_a_at) / RFU FAM174B (11720279_a_at) / Fold change /veh FAM174B (11720279_a_at) / RFU TMPRSS4 (11748680_a_at) / Fold change /veh TMPRSS4 (11748680_a_at) / RFU FAM212B (11763350_a_at) / Fold change /veh FAM212B (11763350_a_at) / RFU PLEKHG5 (11743358_a_at) / Fold change /veh PLEKHG5 (11743358_a_at) / RFU ZSCAN30 (11745921_a_at) / Fold change /veh ZSCAN30 (11745921_a_at) / RFU CMKLR1 (11741424_a_at) / Fold change /veh CMKLR1 (11741424_a_at) / RFU LOC101060620 /// MAPK8IP1 (11723275_at) / Fold change /veh LOC101060620 /// MAPK8IP1 (11723275_at) / RFU SPTSSB (11747773_x_at) / Fold change /veh SPTSSB (11747773_x_at) / RFU PRSS12 (11739890_at) / Fold change /veh PRSS12 (11739890_at) / RFU BIN1 (11741810_x_at) / Fold change /veh BIN1 (11741810_x_at) / RFU WNT11 (11732464_a_at) / Fold change /veh WNT11 (11732464_a_at) / RFU C10orf10 (11716521_a_at) / Fold change /veh C10orf10 (11716521_a_at) / RFU C5orf56 (11738089_at) / Fold change /veh C5orf56 (11738089_at) / RFU CYB561 (11721691_x_at) / Fold change /veh CYB561 (11721691_x_at) / RFU ANKRD19P (11752326_a_at) / Fold change /veh ANKRD19P (11752326_a_at) / RFU OR2T12 /// OR2T33 /// OR2T8 (11738714_s_at) / Fold change /veh OR2T12 /// OR2T33 /// OR2T8 (11738714_s_at) / RFU VCAN (11748164_a_at) / Fold change /veh VCAN (11748164_a_at) / RFU JSRP1 (11732532_at) / Fold change /veh JSRP1 (11732532_at) / RFU KRTAP10-11 (11738290_x_at) / Fold change /veh KRTAP10-11 (11738290_x_at) / RFU MYO3A (11730013_a_at) / Fold change /veh MYO3A (11730013_a_at) / RFU EBF3 (11725865_a_at) / Fold change /veh EBF3 (11725865_a_at) / RFU CAMK2N1 (11719241_x_at) / Fold change /veh CAMK2N1 (11719241_x_at) / RFU C5orf56 (11738088_a_at) / Fold change /veh C5orf56 (11738088_a_at) / RFU OLFML3 (11715873_a_at) / Fold change /veh OLFML3 (11715873_a_at) / RFU LOC100653217 /// NTM (11731650_a_at) / Fold change /veh LOC100653217 /// NTM (11731650_a_at) / RFU MAPK11 (11762145_a_at) / Fold change /veh MAPK11 (11762145_a_at) / RFU FIZ1 (11724087_x_at) / Fold change /veh FIZ1 (11724087_x_at) / RFU OASL (11726364_x_at) / Fold change /veh OASL (11726364_x_at) / RFU SOX15 (11748057_x_at) / Fold change /veh SOX15 (11748057_x_at) / RFU CD79A (11719716_a_at) / Fold change /veh CD79A (11719716_a_at) / RFU HIST1H1D (11736915_at) / Fold change /veh HIST1H1D (11736915_at) / RFU CASKIN2 (11723855_a_at) / Fold change /veh CASKIN2 (11723855_a_at) / RFU LOC730098 (11760151_x_at) / Fold change /veh LOC730098 (11760151_x_at) / RFU OR4N2 (11742367_at) / Fold change /veh OR4N2 (11742367_at) / RFU PRRT2 (11749266_a_at) / Fold change /veh PRRT2 (11749266_a_at) / RFU SNX32 (11753110_a_at) / Fold change /veh SNX32 (11753110_a_at) / RFU CDHR5 (11726645_a_at) / Fold change /veh CDHR5 (11726645_a_at) / RFU RCAN1 (11760418_a_at) / Fold change /veh RCAN1 (11760418_a_at) / RFU FAM167A (11723789_a_at) / Fold change /veh FAM167A (11723789_a_at) / RFU FAM26E (11764081_at) / Fold change /veh FAM26E (11764081_at) / RFU ISYNA1 (11749810_s_at) / Fold change /veh ISYNA1 (11749810_s_at) / RFU ACY1 (11761880_at) / Fold change /veh ACY1 (11761880_at) / RFU 11764098_at / Fold change /veh 11764098_at / RFU SAMD14 (11745864_x_at) / Fold change /veh SAMD14 (11745864_x_at) / RFU NPB (11741838_a_at) / Fold change /veh NPB (11741838_a_at) / RFU TMPRSS6 (11731388_a_at) / Fold change /veh TMPRSS6 (11731388_a_at) / RFU KRTAP10-2 (11738614_at) / Fold change /veh KRTAP10-2 (11738614_at) / RFU ARHGAP8 /// PRR5-ARHGAP8 (11727945_x_at) / Fold change /veh ARHGAP8 /// PRR5-ARHGAP8 (11727945_x_at) / RFU KRTAP5-7 /// NADSYN1 (11734609_at) / Fold change /veh KRTAP5-7 /// NADSYN1 (11734609_at) / RFU RASL12 (11751679_a_at) / Fold change /veh RASL12 (11751679_a_at) / RFU CDKN2B (11736163_a_at) / Fold change /veh CDKN2B (11736163_a_at) / RFU PRF1 (11729649_at) / Fold change /veh PRF1 (11729649_at) / RFU, ZNF638 /// ZNF638-IT1 / Fold change vs veh, ZNF638 /// ZNF638-IT1 / RFU, PANK3 / Fold change vs veh, PANK3 / RFU, SH3YL1 / Fold change vs veh, SH3YL1 / RFU, ZEB2 / Fold change vs veh, ZEB2 / RFU, NRIP1 / Fold change vs veh, NRIP1 / RFU, PTTG1IP / Fold change vs veh, PTTG1IP / RFU, CAPN2 / Fold change vs veh, CAPN2 / RFU, MED14 / Fold change vs veh, MED14 / RFU, SNORA58 / Fold change vs veh, SNORA58 / RFU, C1orf63 / Fold change vs veh, C1orf63 / RFU, LRRFIP1 / Fold change vs veh, LRRFIP1 / RFU, NDUFAF7 / Fold change vs veh, NDUFAF7 / RFU, SLC12A2 / Fold change vs veh, SLC12A2 / RFU, IBTK / Fold change vs veh, IBTK / RFU, ESF1 / Fold change vs veh, ESF1 / Fold change vs veh, TMEM50B / RFU, TAOK1 / Fold change vs veh, TAOK1 / RFU, ACBD3 / Fold change vs veh, ACBD3 / RFU, TMA16 / Fold change vs veh, TMA16 / RFU, RWDD3 / Fold change vs veh, RWDD3 / RFU, BCAT1 / Fold change vs veh, BCAT1 / RFU, EDEM3 / Fold change vs veh, EDEM3 / RFU, TMEM33 / Fold change vs veh, TMEM33 / RFU, WDR75 / Fold change vs veh, WDR75 / RFU, AHCTF1 / Fold change vs veh, AHCTF1 / RFU, TFRC / Fold change vs veh, TFRC / RFU, ZDHHC17 / Fold change vs veh, ZDHHC17 / RFU, NOM1 / Fold change vs veh, NOM1 / RFU, ARL8B / Fold change vs veh, ARL8B / RFU, ZBTB11 / Fold change vs veh, ZBTB11 / RFU, TAMM41 / Fold change vs veh, TAMM41 / RFU, KIAA1704 /// LOC100996395 / Fold change vs veh, KIAA1704 /// LOC100996395 / RFU, ING1 / Fold change vs veh, ING1 / RFU, TRMT61B / Fold change vs veh, TRMT61B / RFU, FUBP3 / Fold change vs veh, FUBP3 / RFU, TP53 / Fold change vs veh, TP53 / RFU, TNKS2 / Fold change vs veh, TNKS2 / RFU, ZFP14 / Fold change vs veh, ZFP14 / RFU, ACTR2 / Fold change vs veh, ACTR2 / RFU, PPP3R1 / Fold change vs veh, PPP3R1 / RFU, PIK3R1 / Fold change vs veh, PIK3R1 / RFU, HNRNPA1 / Fold change vs veh, HNRNPA1 / RFU, RNF170 / Fold change vs veh, RNF170 / RFU, ZNF28 / Fold change vs veh, ZNF28 / RFU, RNGTT / Fold change vs veh, RNGTT / RFU, OGT / Fold change vs veh, OGT / RFU, BRD1 / Fold change vs veh, BRD1 / RFU, MARS / Fold change vs veh, MARS / RFU, ZNF655 / Fold change vs veh, ZNF655 / RFU, FAHD1 / Fold change vs veh, FAHD1 / RFU, BDP1 / Fold change vs veh, BDP1 / RFU, LRRCC1 / Fold change vs veh, LRRCC1 / RFU, ARID1A / Fold change vs veh, ARID1A / RFU, ZNF146 / Fold change vs veh, ZNF146 / RFU, ZNF330 / Fold change vs veh, ZNF330 / RFU, GPN3 / Fold change vs veh, GPN3 / RFU, C9orf123 / Fold change vs veh, C9orf123 / RFU, N4BP2L2 / Fold change vs veh, N4BP2L2 / RFU, ARFIP1 / Fold change vs veh, ARFIP1 / RFU, FAM179B / Fold change vs veh, FAM179B / RFU, BCL10 / Fold change vs veh, BCL10 / RFU, UHRF1BP1L / Fold change vs veh, UHRF1BP1L / RFU, BET1 / Fold change vs veh, BET1 / RFU, CNOT2 / Fold change vs veh, CNOT2 / RFU, ZNF268 / Fold change vs veh, ZNF268 / Fold change vs veh, ZNF507 / RFU, DGCR2 / Fold change vs veh, DGCR2 / RFU, WDSUB1 / Fold change vs veh, WDSUB1 / Fold change vs veh, HSP90B1 /// MIR3652 / RFU, ADSS / Fold change vs veh, ADSS / RFU, GK / Fold change vs veh, GK / RFU, ZNF148 / Fold change vs veh, ZNF148 / RFU, TAF9 / Fold change vs veh, TAF9 / RFU, SLC1A5 / Fold change vs veh, SLC1A5 / RFU, SLMO2 / Fold change vs veh, SLMO2 / RFU, ABCC4 / Fold change vs veh, ABCC4 / RFU, LOC101060439 /// RAP1B / Fold change vs veh, LOC101060439 /// RAP1B / RFU, RFX7 / Fold change vs veh, RFX7 / RFU, GTPBP10 / Fold change vs veh, GTPBP10 / RFU, CNEP1R1 / Fold change vs veh, CNEP1R1 / RFU, BIVM-ERCC5 /// ERCC5 / Fold change vs veh, BIVM-ERCC5 /// ERCC5 / RFU, ILF3 / Fold change vs veh, ILF3 / RFU 11762660_at / Fold change /veh 11762660_at / RFU VCAN (11757783_s_at) / Fold change /veh VCAN (11757783_s_at) / RFU DDX43 (11728927_at) / Fold change /veh DDX43 (11728927_at) / RFU KRT8 (11758188_x_at) / Fold change /veh KRT8 (11758188_x_at) / RFU NKD1 (11759106_at) / Fold change /veh NKD1 (11759106_at) / RFU SRD5A1 (11742802_a_at) / Fold change /veh SRD5A1 (11742802_a_at) / RFU TPSAB1 /// TPSB2 (11721975_s_at) / Fold change /veh TPSAB1 /// TPSB2 (11721975_s_at) / RFU GSTM3 (11746129_a_at) / Fold change /veh GSTM3 (11746129_a_at) / RFU IL23R (11737362_x_at) / Fold change /veh IL23R (11737362_x_at) / RFU TMEM51 (11727254_a_at) / Fold change /veh TMEM51 (11727254_a_at) / RFU PIWIL2 (11732686_x_at) / Fold change /veh PIWIL2 (11732686_x_at) / RFU ORM1 (11744905_x_at) / Fold change /veh ORM1 (11744905_x_at) / RFU CCDC152 (11743942_at) / Fold change /veh CCDC152 (11743942_at) / RFU ECM1 (11717891_a_at) / Fold change /veh ECM1 (11717891_a_at) / RFU IL23R (11748794_a_at) / Fold change /veh IL23R (11748794_a_at) / RFU TNFAIP8L3 (11732012_x_at) / Fold change /veh TNFAIP8L3 (11732012_x_at) / RFU MBOAT4 (11741988_at) / Fold change /veh MBOAT4 (11741988_at) / RFU 11764193_at / Fold change /veh 11764193_at / RFU TMEM53 (11763286_at) / Fold change /veh TMEM53 (11763286_at) / RFU MAGEB2 (11727129_at) / Fold change /veh MAGEB2 (11727129_at) / RFU TMEM200A (11744735_a_at) / Fold change /veh TMEM200A (11744735_a_at) / RFU CCDC152 (11751479_a_at) / Fold change /veh CCDC152 (11751479_a_at) / RFU FAM211A (11726209_a_at) / Fold change /veh FAM211A (11726209_a_at) / RFU RGS16 (11746705_a_at) / Fold change /veh RGS16 (11746705_a_at) / RFU VCAN (11755009_s_at) / Fold change /veh VCAN (11755009_s_at) / RFU RHOB (11743442_s_at) / Fold change /veh RHOB (11743442_s_at) / RFU RGS16 (11720943_a_at) / Fold change /veh RGS16 (11720943_a_at) / RFU RGS16 (11720944_at) / Fold change /veh RGS16 (11720944_at) / RFU, VPS4B / Fold change vs veh, VPS4B / RFU, CREB1 / Fold change vs veh, CREB1 / RFU, DNAJC13 / Fold change vs veh, DNAJC13 / RFU, GNAQ / Fold change vs veh, GNAQ / RFU, CDK5R1 / Fold change vs veh, CDK5R1 / RFU, ZRANB3 / Fold change vs veh, ZRANB3 / RFU, CUL4A / Fold change vs veh, CUL4A / RFU, CCNY / Fold change vs veh, CCNY / RFU, UFL1 / Fold change vs veh, UFL1 / RFU, COG3 / Fold change vs veh, COG3 / RFU, DIAPH2 / Fold change vs veh, DIAPH2 / RFU, SKA2 / Fold change vs veh, SKA2 / RFU, AFF3 / Fold change vs veh, AFF3 / RFU, LMF1 / Fold change vs veh, LMF1 / RFU, IPO11 / Fold change vs veh, IPO11 / RFU, DFFB / Fold change vs veh, DFFB / RFU, FOXP1 / Fold change vs veh, FOXP1 / RFU, CARD8 / Fold change vs veh, CARD8 / RFU, STRN3 / Fold change vs veh, STRN3 / RFU, ADK / Fold change vs veh, ADK / RFU, RASSF2 / Fold change vs veh, RASSF2 / RFU, WIPF1 / Fold change vs veh, WIPF1 / RFU, LARP1B / Fold change vs veh, LARP1B / RFU, RASA1 / Fold change vs veh, RASA1 / RFU, RB1 / Fold change vs veh, RB1 / RFU, PPFIA1 / Fold change vs veh, PPFIA1 / RFU, MAT2A / Fold change vs veh, MAT2A / RFU, CCT5 / Fold change vs veh, CCT5 / RFU, WDR92 / Fold change vs veh, WDR92 / RFU, CUX1 / Fold change vs veh, CUX1 / RFU, TTC7A / Fold change vs veh, TTC7A / RFU, TMEM135 / Fold change vs veh, TMEM135 / RFU, DEPTOR / Fold change vs veh, DEPTOR / RFU, CPM / Fold change vs veh, CPM / RFU, DNAJB6 / Fold change vs veh, DNAJB6 / RFU, CACNA2D3 / Fold change vs veh, CACNA2D3 / RFU, DTX4 / Fold change vs veh, DTX4 / RFU, TFCP2 / Fold change vs veh, TFCP2 / RFU, GMCL1 /// GMCL1P1 / Fold change vs veh, GMCL1 /// GMCL1P1 / RFU, AEBP2 / Fold change vs veh, AEBP2 / RFU, SNHG1 /// SNORD22 /// SNORD25 /// SNORD26 /// SNORD27 /// SNORD28 /// SNORD29 /// SNORD31 / Fold change vs veh, SNHG1 /// SNORD22 /// SNORD25 /// SNORD26 /// SNORD27 /// SNORD28 /// SNORD29 /// SNORD31 / Fold change (Aza/veh), C12orf56 (ProbeSet 11735607_a_at) / Fold change (ACY-1035/veh), C12orf56 (ProbeSet 11735607_a_at) / Fold change (Aza/veh), FGFR1OP (ProbeSet 11751329_s_at) / Fold change (ACY-1035/veh), FGFR1OP (ProbeSet 11751329_s_at) / Fold change (Aza/veh), VPS36 (ProbeSet 11739960_a_at) / Fold change (ACY-1035/veh), VPS36 (ProbeSet 11739960_a_at) / RFU SYPL1 (11715823_x_at) / Fold change /veh SYPL1 (11715823_x_at) / RFU IGFBP7 (11715501_s_at) / Fold change /veh IGFBP7 (11715501_s_at) / RFU REEP3 (11722064_at) / Fold change /veh REEP3 (11722064_at) / RFU IGLL1 (11728026_x_at) / Fold change /veh IGLL1 (11728026_x_at): dose or concentration left out as unconfirmed. The conditions noted are these: ProbeSet 11760938_a_at; LIST D.

The text below walks through data of publication PMC5218480 (PLoS ONE, 2017).

For `Nc1ccc(-c2cccs2)cc1NC(=O)c1ccc2c(c1)cc(C1CC1)n2CCN1CCOCC1` [ACY-1035], the “RFU, MAT2A” value was 163.17 RFU.
